Literature values in article PMC9851200, “Multiparameter phenotypic screening for endogenous TFEB and TFE3 translocation identifies novel chemical series modulating lysosome function” (Autophagy, 2022).

How the values were obtained:
Parameters in all cases: method as in original PKIS2 published data
[1] = target: T1, kinases (KINOMEscan panel) (Homo sapiens, UniProt O14976); settings: kinase GAK; Published KINOMEscan; ref original PKIS2 published data; cited from earlier work
T1 sequence (O14976 1-1311): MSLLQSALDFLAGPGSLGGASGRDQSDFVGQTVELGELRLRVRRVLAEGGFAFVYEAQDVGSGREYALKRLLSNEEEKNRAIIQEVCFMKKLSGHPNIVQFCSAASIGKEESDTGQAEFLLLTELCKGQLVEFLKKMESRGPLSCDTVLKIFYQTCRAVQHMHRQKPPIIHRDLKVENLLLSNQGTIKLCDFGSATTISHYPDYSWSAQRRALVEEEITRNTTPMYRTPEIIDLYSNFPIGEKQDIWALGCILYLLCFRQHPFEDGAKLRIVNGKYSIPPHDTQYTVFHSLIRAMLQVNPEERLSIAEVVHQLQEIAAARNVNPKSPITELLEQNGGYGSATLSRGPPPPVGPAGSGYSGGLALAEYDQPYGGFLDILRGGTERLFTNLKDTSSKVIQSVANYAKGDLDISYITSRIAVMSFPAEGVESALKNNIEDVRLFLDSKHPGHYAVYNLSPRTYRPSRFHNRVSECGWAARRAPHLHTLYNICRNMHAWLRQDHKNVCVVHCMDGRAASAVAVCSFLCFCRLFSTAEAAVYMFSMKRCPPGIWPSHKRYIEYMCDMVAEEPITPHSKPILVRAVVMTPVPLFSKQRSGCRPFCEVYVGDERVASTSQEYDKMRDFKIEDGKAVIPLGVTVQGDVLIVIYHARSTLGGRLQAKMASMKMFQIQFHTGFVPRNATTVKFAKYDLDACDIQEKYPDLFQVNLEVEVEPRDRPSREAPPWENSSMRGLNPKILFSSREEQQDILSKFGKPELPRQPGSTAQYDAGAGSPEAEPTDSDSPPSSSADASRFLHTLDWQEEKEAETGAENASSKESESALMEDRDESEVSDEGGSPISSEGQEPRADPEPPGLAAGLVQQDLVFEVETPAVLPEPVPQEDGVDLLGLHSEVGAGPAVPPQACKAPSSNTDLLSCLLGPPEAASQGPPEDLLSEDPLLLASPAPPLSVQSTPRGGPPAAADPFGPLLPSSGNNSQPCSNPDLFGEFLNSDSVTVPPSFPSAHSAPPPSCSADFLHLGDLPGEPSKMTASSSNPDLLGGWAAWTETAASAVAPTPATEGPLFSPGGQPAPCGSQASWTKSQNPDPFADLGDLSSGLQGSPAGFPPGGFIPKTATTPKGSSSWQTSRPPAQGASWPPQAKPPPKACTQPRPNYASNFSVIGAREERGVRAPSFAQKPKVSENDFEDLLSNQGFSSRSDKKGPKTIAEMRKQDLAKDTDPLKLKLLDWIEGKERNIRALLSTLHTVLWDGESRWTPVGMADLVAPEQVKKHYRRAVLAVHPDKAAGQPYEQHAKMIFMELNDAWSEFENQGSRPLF

[2] = target: T2, kinases (KINOMEscan panel) (Homo sapiens, UniProt O15111); settings: cited from earlier work
T2 sequence (O15111 1-745): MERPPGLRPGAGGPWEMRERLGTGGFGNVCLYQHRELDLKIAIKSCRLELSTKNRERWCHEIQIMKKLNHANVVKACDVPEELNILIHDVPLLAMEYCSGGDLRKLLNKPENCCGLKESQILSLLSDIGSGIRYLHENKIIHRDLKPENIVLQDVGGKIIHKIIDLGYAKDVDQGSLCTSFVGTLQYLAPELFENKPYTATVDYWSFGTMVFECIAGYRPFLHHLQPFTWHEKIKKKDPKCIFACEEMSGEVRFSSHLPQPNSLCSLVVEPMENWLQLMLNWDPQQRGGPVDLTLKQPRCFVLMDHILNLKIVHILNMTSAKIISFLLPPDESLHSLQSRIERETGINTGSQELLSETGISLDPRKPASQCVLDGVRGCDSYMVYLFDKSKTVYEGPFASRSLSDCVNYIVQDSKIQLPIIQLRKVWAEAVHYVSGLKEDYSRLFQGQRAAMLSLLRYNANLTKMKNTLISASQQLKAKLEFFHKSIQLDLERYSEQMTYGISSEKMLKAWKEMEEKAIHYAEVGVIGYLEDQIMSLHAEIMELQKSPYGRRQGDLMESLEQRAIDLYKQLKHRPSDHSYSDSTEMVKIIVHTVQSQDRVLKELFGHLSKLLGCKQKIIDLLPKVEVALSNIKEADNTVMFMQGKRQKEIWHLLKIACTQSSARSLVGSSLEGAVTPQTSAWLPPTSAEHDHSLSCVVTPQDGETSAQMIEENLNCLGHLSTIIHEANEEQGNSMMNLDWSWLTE

[3] = target: kinases (KINOMEscan panel) (Homo sapiens, UniProt O60331); settings: PIP5K1C; Published KINOMEscan; ref original PKIS2 published data; cited from earlier work
[4] = target: kinases (KINOMEscan panel) (Homo sapiens, UniProt P0C1S8); settings: WEE2; Published KINOMEscan; ref original PKIS2 published data; cited from earlier work
[5] = target: kinases (KINOMEscan panel) (Homo sapiens, UniProt P32298); settings: kinase GRK4; Published KINOMEscan; ref original PKIS2 published data; cited from earlier work
[6] = target: kinases (KINOMEscan panel) (Homo sapiens, UniProt P51957); settings: kinase NEK4; Published KINOMEscan; ref original PKIS2 published data; cited from earlier work
[7] = target: kinases (KINOMEscan panel) (Homo sapiens, UniProt Q06187); settings: kinase BTK; Published KINOMEscan; ref original PKIS2 published data; cited from earlier work
[8] = target: kinases (KINOMEscan panel) (Homo sapiens, UniProt Q14004); settings: cited from earlier work
[9] = target: kinases (KINOMEscan panel) (Homo sapiens, UniProt Q99558); settings: kinase MAP3K14; Published KINOMEscan; ref original PKIS2 published data; cited from earlier work
[10] = target: kinases (KINOMEscan panel) (Homo sapiens, UniProt Q9Y4K4); settings: kinase MAP4K5; Published KINOMEscan; ref original PKIS2 published data; cited from earlier work
Sequence of kinases (KINOMEscan panel) (Homo sapiens, UniProt Q9Y4K4) (Q9Y4K4 whole entry): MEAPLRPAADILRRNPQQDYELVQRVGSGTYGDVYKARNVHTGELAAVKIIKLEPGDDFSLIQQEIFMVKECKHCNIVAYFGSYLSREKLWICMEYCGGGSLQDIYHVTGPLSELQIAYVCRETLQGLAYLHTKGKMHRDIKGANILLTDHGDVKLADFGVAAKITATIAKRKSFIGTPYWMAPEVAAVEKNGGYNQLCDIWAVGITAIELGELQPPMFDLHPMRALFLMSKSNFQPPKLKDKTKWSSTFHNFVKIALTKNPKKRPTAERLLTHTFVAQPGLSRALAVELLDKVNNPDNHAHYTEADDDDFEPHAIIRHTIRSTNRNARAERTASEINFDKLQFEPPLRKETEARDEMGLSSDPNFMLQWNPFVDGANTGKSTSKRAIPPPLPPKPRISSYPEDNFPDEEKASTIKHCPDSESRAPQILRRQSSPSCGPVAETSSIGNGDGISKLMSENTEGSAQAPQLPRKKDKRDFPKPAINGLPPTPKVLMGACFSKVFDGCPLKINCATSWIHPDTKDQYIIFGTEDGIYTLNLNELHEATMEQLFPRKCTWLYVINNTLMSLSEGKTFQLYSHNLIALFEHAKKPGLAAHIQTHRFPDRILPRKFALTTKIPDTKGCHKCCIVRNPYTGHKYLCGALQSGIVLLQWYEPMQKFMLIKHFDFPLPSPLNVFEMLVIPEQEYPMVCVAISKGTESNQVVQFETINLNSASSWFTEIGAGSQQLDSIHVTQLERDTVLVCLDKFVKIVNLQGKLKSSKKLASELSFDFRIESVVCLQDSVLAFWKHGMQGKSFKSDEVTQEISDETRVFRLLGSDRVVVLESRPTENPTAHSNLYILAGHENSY

Sequence of kinases (KINOMEscan panel) (Homo sapiens, UniProt P51957) (P51957 whole entry): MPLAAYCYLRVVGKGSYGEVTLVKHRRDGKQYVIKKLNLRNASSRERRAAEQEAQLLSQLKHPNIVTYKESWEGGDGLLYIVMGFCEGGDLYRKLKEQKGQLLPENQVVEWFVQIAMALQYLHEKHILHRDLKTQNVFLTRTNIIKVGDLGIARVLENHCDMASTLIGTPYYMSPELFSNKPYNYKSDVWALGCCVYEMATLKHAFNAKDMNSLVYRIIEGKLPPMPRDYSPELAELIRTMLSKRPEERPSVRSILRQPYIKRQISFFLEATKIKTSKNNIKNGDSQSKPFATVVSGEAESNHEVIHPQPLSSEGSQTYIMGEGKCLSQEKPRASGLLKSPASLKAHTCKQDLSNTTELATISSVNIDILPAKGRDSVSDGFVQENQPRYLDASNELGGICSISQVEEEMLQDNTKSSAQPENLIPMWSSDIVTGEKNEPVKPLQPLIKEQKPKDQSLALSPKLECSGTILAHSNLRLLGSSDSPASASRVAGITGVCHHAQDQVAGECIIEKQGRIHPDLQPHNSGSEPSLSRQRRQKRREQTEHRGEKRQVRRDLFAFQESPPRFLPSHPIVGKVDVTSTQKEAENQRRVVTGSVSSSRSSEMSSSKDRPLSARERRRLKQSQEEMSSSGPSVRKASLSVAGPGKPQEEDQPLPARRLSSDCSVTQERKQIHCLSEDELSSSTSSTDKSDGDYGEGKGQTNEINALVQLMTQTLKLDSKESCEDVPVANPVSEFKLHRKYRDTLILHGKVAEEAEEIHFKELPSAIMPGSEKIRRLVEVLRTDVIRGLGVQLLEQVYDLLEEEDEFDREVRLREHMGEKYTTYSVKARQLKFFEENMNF
Sequence of kinases (KINOMEscan panel) (Homo sapiens, UniProt Q99558) (Q99558 whole entry): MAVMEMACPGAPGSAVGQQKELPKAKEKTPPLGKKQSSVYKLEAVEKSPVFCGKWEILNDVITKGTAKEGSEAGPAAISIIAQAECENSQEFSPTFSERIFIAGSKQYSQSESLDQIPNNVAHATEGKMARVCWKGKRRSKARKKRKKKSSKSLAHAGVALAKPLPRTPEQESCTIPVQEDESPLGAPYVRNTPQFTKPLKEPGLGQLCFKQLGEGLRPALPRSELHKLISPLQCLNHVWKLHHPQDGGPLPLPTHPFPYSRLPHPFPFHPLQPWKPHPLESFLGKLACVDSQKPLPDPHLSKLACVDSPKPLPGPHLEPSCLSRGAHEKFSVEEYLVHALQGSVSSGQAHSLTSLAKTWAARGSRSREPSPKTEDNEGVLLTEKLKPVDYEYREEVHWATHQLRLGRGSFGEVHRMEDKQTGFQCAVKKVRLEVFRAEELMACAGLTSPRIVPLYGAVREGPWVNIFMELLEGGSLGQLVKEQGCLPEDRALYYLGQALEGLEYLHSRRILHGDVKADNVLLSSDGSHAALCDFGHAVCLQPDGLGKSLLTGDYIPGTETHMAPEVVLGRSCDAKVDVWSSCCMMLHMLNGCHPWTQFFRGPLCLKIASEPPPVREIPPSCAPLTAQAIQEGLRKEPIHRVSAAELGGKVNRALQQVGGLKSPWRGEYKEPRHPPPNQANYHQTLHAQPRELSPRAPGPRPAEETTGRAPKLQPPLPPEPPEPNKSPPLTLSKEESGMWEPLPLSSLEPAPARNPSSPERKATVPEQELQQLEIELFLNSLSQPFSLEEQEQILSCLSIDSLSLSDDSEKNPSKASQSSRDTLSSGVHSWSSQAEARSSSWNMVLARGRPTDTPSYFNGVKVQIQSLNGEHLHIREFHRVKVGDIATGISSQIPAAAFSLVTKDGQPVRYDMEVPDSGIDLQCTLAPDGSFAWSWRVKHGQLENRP
Sequence of kinases (KINOMEscan panel) (Homo sapiens, UniProt Q14004) (Q14004 whole entry): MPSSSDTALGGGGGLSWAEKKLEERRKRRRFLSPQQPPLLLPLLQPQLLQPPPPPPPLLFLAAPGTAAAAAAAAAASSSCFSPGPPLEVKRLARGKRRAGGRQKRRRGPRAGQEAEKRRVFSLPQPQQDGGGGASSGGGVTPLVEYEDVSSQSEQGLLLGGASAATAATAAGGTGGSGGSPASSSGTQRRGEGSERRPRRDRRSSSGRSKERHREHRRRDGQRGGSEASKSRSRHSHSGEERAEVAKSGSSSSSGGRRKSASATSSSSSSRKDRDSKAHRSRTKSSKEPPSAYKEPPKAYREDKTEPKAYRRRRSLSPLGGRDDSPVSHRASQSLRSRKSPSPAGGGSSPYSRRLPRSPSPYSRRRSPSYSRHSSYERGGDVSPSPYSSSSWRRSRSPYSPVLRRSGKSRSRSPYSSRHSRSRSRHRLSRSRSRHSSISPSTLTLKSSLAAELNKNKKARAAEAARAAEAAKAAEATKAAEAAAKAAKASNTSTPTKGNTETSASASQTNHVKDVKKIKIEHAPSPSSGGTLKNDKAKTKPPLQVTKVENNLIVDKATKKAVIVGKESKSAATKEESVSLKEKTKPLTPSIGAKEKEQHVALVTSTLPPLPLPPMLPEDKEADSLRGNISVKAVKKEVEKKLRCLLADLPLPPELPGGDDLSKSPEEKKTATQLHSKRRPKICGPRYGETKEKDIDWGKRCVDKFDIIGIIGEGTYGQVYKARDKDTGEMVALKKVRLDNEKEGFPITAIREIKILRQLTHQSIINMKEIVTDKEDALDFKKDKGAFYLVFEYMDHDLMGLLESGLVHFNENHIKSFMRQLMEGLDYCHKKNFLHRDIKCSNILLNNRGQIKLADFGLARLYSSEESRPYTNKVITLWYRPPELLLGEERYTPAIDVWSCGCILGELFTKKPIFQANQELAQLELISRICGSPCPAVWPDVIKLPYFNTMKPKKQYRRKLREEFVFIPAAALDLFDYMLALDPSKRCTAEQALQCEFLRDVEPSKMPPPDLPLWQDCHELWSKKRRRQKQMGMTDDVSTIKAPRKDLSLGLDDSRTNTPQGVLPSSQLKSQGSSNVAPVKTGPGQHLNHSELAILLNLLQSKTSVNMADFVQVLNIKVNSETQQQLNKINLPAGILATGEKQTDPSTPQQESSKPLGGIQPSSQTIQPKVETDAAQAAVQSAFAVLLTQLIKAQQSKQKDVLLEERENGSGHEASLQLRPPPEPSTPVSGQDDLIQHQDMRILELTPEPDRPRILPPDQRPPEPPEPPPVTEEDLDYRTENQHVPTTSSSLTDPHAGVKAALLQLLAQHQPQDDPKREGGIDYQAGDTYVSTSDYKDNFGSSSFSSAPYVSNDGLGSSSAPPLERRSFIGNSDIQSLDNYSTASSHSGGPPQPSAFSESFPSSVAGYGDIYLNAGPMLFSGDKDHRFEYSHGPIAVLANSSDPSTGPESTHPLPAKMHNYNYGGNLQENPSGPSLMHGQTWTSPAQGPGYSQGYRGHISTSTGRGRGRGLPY
Sequence of kinases (KINOMEscan panel) (Homo sapiens, UniProt P32298) (P32298 whole entry): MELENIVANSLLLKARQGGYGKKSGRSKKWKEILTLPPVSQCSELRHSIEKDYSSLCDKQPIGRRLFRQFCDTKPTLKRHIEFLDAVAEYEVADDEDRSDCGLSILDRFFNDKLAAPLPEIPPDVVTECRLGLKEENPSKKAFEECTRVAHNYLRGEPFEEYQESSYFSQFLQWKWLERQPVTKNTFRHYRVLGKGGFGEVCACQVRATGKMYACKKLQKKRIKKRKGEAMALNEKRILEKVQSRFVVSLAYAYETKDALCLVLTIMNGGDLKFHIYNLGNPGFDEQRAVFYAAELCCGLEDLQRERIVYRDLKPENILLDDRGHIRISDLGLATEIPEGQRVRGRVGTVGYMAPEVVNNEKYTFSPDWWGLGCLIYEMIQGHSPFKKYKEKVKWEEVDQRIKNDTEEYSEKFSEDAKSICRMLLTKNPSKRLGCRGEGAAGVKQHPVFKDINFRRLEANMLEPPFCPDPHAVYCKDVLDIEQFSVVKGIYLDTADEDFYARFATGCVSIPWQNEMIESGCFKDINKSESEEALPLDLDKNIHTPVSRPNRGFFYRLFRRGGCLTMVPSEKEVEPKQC

Cc1cccc(-c2nc(Nc3ccncc3)c3ccccc3n2)n1 [NK215]
KINOMEscan GAK [1]: 0 | KINOMEscan CHUK/IKK-alpha [2]: 0 | KINOMEscan PIP5K1C [3]: 40 | KINOMEscan WEE2 [4]: 8 | KINOMEscan GRK4 [5]: 0 | KINOMEscan NEK4 [6]: 0 | KINOMEscan BTK [7]: 0 | KINOMEscan CDK13 [8]: 0 | KINOMEscan MAP3K14 [9]: 0 | KINOMEscan MAP4K5 [10]: 0
